The assay deals with T1, NPR-B (Mus musculus, UniProt Q6VVW5).
T1 construct: Murine NIH3T3 cells express endogenously the CNP signaling receptor, NPR-B; endogenous in cells; host or cells: NIH3T3 (murine fibroblasts)
T1 sequence (Q6VVW5 17-1047): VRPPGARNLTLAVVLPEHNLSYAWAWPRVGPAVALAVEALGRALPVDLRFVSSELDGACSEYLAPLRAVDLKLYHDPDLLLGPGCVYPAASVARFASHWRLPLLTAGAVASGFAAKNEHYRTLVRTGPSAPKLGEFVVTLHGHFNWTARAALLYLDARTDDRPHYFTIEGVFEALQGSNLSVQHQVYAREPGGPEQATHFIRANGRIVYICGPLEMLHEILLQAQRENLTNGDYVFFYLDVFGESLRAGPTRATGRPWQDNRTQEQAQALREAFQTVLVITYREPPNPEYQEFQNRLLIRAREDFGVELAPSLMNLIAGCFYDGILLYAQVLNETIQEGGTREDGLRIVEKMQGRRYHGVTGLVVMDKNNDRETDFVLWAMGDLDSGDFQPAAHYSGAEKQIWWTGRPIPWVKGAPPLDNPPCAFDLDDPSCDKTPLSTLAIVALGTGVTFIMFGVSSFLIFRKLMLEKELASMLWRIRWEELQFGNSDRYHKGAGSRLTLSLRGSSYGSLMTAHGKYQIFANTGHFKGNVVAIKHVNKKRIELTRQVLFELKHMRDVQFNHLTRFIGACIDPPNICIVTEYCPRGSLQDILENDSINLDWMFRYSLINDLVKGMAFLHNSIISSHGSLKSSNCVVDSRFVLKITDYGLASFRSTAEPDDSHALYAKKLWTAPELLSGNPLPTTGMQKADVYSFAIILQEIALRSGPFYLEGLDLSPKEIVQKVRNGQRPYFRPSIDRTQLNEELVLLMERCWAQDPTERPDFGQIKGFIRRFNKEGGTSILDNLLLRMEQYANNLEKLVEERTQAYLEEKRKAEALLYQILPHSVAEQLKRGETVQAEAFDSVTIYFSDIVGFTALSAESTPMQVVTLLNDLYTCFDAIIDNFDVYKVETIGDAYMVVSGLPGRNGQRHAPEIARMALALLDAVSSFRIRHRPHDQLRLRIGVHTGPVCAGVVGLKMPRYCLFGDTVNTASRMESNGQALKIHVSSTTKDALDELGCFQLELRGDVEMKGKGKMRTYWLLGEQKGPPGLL
Kind of assay: Stimulation of cGMP production in NIH3T3 cells. In kind it is cell-based, Murine. The settings on record: for cGMP response relative to 1 uM CNP22 (%) at 0.01 µM: read-out: cGMP Response rel. to 1 uM CNP22, 10 nM; for cGMP response relative to 1 uM CNP22 (%) at 1 µM: read-out: cGMP Response rel. to 1 uM CNP22, 1 uM.

Where [1] appears, read: NIH3T3 cells, 10 nM natriuretic peptide, normalized to cell number and cGMP production with 1 uM wtCNP22.
Setting [2] is: NIH3T3 cells, 1 uM natriuretic peptide, normalized to cell number and cGMP production with 1 uM wtCNP22.

Like-named read-outs stand apart in the source and are kept apart here. Bridge positions count the residues as written; N and C are the ends. Square brackets hold non-standard residues; d marks the D form. Ends that are not written are not given here. Peptide text beside a SMILES is read from it. PEO12 = monodispersed PEO, 0.6 kDa; Cit = NC(=O)NCCC[C@H](N)C(=O)O

For the compound `CC[C@H](C)[C@@H]1NC(=O)[C@H](CCCNC(=N)N)NC(=O)[C@H](CC(=O)O)NC(=O)[C@H](CC(C)C)NC(=O)[C@H](CCCCN)NC(=O)[C@H](CC(C)C)NC(=O)CNC(=O)[C@H](Cc2ccccc2)NC(=O)[C@@H](NC(=O)CNC(=O)[C@H](CCCNC(=N)N)NC(=O)[C@H](CO)NC(=O)[C@H](CC(C)C)NC(=O)CN)CSSC[C@@H](C(=O)O)NC(=O)CNC(=O)[C@H](CC(C)C)NC(=O)CNC(=O)[C@H](CO)NC(=O)[C@H](CCSC)NC(=O)[C@H](CO)NC(=O)[C@H](CCCNC(=N)N)NC1=O` [AE] (H-GLSRGCFGLKLDRIRSMSGLGC-OH; disulfide 6-22 (inferred); N-terminus and C-terminus assumed), where the note is “NIH3T3, […]”, the cGMP response relative to 1 uM CNP22 (%) at 0.01 µM stood at 0.3% and the cGMP response relative to 1 uM CNP22 (%) at 1 µM came to 0.3%.
Consider `CC[C@H](C)[C@@H]1NC(=O)[C@H](CCCNC(=N)N)NC(=O)[C@H](CC(=O)O)NC(=O)[C@H](CC(C)C)NC(=O)[C@H](CCCCN)NC(=O)[C@H](CC(C)C)NC(=O)CNC(=O)[C@H](Cc2ccccc2)NC(=O)[C@@H](NC(=O)CNC(=O)[C@H](CCCCN)NC(=O)[C@H](CO)NC(=O)[C@H](CC(C)C)NC(=O)CNC(=O)[C@H](CCC(N)=O)NC(=O)[C@H](CCC(N)=O)NC(=O)[C@H](CC(N)=O)NC(=O)[C@H](C)NC(=O)CNC(=O)[C@H](CCCCN)NC(=O)[C@H](Cc2ccc(O)cc2)NC(=O)[C@H](CCCCN)NC(=O)[C@H](CCCNC(=N)N)NC(=O)[C@H](C)NC(=O)[C@H](CC(N)=O)NC(=O)[C@@H]2CCCN2C(=O)[C@H](Cc2c[nH]cn2)NC(=O)[C@H](CCC(=O)O)NC(=O)[C@H](CCC(N)=O)NC(=O)CN)CSSC[C@@H](C(=O)O)NC(=O)CNC(=O)[C@H](CC(C)C)NC(=O)CNC(=O)[C@H](CO)NC(=O)[C@H](CCSC)NC(=O)[C@H](CO)NC(=O)CNC1=O` [CU] (H-GQEHPNARKYKGANQQGLSKGCFGLKLDRIGSMSGLGC-OH; disulfide 22-38 (inferred); N-terminus and C-terminus assumed), for which the cGMP response relative to 1 uM CNP22 (%) at 0.01 µM under setting [1] amounted to 9%. Under setting [2], the cGMP response relative to 1 uM CNP22 (%) at 1 µM amounted to 57%.
As to `CC[C@H](C)[C@@H]1NC(=O)[C@H](CCCNC(=N)N)NC(=O)[C@H](CC(=O)O)NC(=O)[C@H](CC(C)C)NC(=O)[C@H](CCCCN)NC(=O)[C@H](CC(C)C)NC(=O)[C@H](C(C)C)NC(=O)[C@H](Cc2ccccc2)NC(=O)[C@@H](NC(=O)CNC(=O)[C@H](CCCNC(=N)N)NC(=O)[C@H](CO)NC(=O)[C@H](CC(C)C)NC(=O)CN)CSSC[C@@H](C(=O)O)NC(=O)CNC(=O)[C@H](CC(C)C)NC(=O)CNC(=O)[C@H](CO)NC(=O)[C@H](CCSC)NC(=O)[C@H](CO)NC(=O)CNC1=O` [AA] (H-GLSRGCFVLKLDRIGSMSGLGC-OH; disulfide 6-22 (inferred); N-terminus and C-terminus assumed), the cGMP response relative to 1 uM CNP22 (%) at 0.01 µM under setting [1] stood at 3%. Under setting [2], the cGMP response relative to 1 uM CNP22 (%) at 1 µM was determined as 25%.
Turning to `CC[C@H](C)[C@@H]1NC(=O)[C@H](CCCNC(=N)N)NC(=O)[C@H](CC(=O)O)NC(=O)[C@H](CC(C)C)NC(=O)[C@H](CCCCN)NC(=O)[C@H](CC(C)C)NC(=O)CNC(=O)[C@H](Cc2ccccc2)NC(=O)[C@@H](NC(=O)CNC(=O)[C@H](CCCNC(=N)N)NC(=O)[C@H](CO)NC(=O)[C@H](CC(C)C)NC(=O)CNC(=O)[C@H](CCCNC(=N)N)NC(=O)[C@@H]2CCCN2C(=O)[C@H](CC(N)=O)NC(=O)[C@H](C)NC(=O)CN)CSSC[C@@H](C(=O)O)NC(=O)CNC(=O)[C@H](CC(C)C)NC(=O)CNC(=O)[C@H](CO)NC(=O)[C@H](CCSC)NC(=O)[C@H](CO)NC(=O)CNC1=O` [CI] (H-GANPRGLSRGCFGLKLDRIGSMSGLGC-OH; disulfide 11-27 (inferred); N-terminus and C-terminus assumed), under setting [1], the cGMP response relative to 1 uM CNP22 (%) at 0.01 µM was found to be 50 ± 1%. Moreover, the cGMP response relative to 1 uM CNP22 (%) at 1 µM under setting [2] turned out to be 105 ± 12%.
With `CC[C@H](C)[C@@H]1NC(=O)[C@H](CCCNC(=N)N)NC(=O)[C@H](CC(=O)O)NC(=O)[C@H](CC(C)C)NC(=O)[C@H](CCCCN)NC(=O)[C@H](CC(C)C)NC(=O)CNC(=O)[C@H](Cc2ccccc2)NC(=O)[C@@H](NC(=O)CNC(=O)[C@H](CCCNC(=N)N)NC(=O)[C@H](CO)NC(=O)[C@H](CC(C)C)NC(=O)CNC(=O)[C@H](CCC(N)=O)NC(=O)[C@H](CCC(N)=O)NC(=O)[C@H](CC(N)=O)NC(=O)[C@H](C)NC(=O)CN)CSSC[C@@H](C(=O)O)NC(=O)CNC(=O)[C@H](CC(C)C)NC(=O)CNC(=O)[C@H](CO)NC(=O)[C@H](CCSC)NC(=O)[C@H](CO)NC(=O)CNC1=O` [CH] (H-GANQQGLSRGCFGLKLDRIGSMSGLGC-OH; disulfide 11-27 (inferred); N-terminus and C-terminus assumed), the cGMP response relative to 1 uM CNP22 (%) at 0.01 µM under setting [1] turned out to be 44 ± 8%. Under setting [2], the cGMP response relative to 1 uM CNP22 (%) at 1 µM turned out to be 95 ± 11%.
As for “PEO12-CNP22, K4R: CNP22, K4R conjugated at the N-terminus to PEO12 (PEO12-GLSRGCFGLKLDRIGSMSGLGC; disulfide 6-22 (inferred); UniProt P23582 105-126, looked up, variant K4R)”, the “cGMP Response rel. to 1 uM CNP22, 10 nM” value under setting [1] was determined as 13. Besides, the “cGMP Response rel. to 1 uM CNP22, 1 uM” value under setting [2] was determined as 44.
`CC[C@H](C)[C@@H]1NC(=O)[C@H](CCCNC(=N)N)NC(=O)[C@H](CC(=O)O)NC(=O)[C@H](CC(C)C)NC(=O)[C@H](CCCNC(N)=O)NC(=O)[C@H](CC(C)C)NC(=O)CNC(=O)[C@H](Cc2ccccc2)NC(=O)[C@@H](NC(=O)CNC(=O)[C@H](CCCNC(=N)N)NC(=O)[C@H](CO)NC(=O)[C@H](CC(C)C)NC(=O)CN)CSSC[C@@H](C(=O)O)NC(=O)CNC(=O)[C@H](CC(C)C)NC(=O)CNC(=O)[C@H](CO)NC(=O)[C@H](CCSC)NC(=O)[C@H](CO)NC(=O)CNC1=O` [BF] (H-GLSRGCFGL[Cit]LDRIGSMSGLGC-OH; disulfide 6-22 (inferred); N-terminus and C-terminus assumed): the cGMP response relative to 1 uM CNP22 (%) at 0.01 µM under setting [1] worked out at 6%. The cGMP response relative to 1 uM CNP22 (%) at 1 µM under setting [2] is 33%.
The matching figures for `CC[C@H](C)[C@@H]1NC(=O)[C@H](CCCNC(=N)N)NC(=O)[C@H](CC(=O)O)NC(=O)[C@H](CC(C)C)NC(=O)[C@H](CCCNC(=N)N)NC(=O)[C@H](CC(C)C)NC(=O)CNC(=O)[C@H](Cc2ccccc2)NC(=O)[C@@H](NC(=O)CNC(=O)[C@H](CCCNC(=N)N)NC(=O)[C@H](CO)NC(=O)[C@H](CC(C)C)NC(=O)CN)CSSC[C@@H](C(=O)O)NC(=O)CNC(=O)[C@H](CC(C)C)NC(=O)CNC(=O)[C@H](CO)NC(=O)[C@H](CCSC)NC(=O)[C@H](CO)NC(=O)CNC1=O` [BH] (H-GLSRGCFGLRLDRIGSMSGLGC-OH; disulfide 6-22): 12% and 80%.
With `CC[C@H](C)[C@@H]1NC(=O)[C@H](CCCNC(=N)N)NC(=O)[C@H](CC(=O)O)NC(=O)[C@H](CC(C)C)NC(=O)[C@H](CCCCN)NC(=O)[C@H](CC(C)C)NC(=O)CNC(=O)[C@H](Cc2ccccc2)NC(=O)[C@@H](NC(=O)CNC(=O)[C@H](CCCCN)NC(=O)[C@H](CO)NC(=O)[C@H](CC(C)C)NC(=O)CNC(=O)[C@H](CCC(N)=O)NC(=O)[C@H](CCC(N)=O)NC(=O)[C@H](CC(N)=O)NC(=O)[C@H](C)NC(=O)CNC(=O)[C@H](Cc2c[nH]cn2)NC(=O)[C@@H](NC(=O)[C@H](CC(=O)O)NC(=O)[C@H](Cc2c[nH]cn2)NC(=O)[C@H](CCC(=O)O)NC(=O)[C@H](Cc2c[nH]cn2)NC(=O)[C@@H]2CCCN2C(=O)[C@H](Cc2c[nH]cn2)NC(=O)[C@H](Cc2c[nH]cn2)NC(=O)[C@H](C)NC(=O)CN)[C@@H](C)O)CSSC[C@@H](C(=O)O)NC(=O)CNC(=O)[C@H](CC(C)C)NC(=O)CNC(=O)[C@H](CO)NC(=O)[C@H](CCSC)NC(=O)[C@H](CO)NC(=O)CNC1=O` [CR] (H-GAHHPHEHDTHGANQQGLSKGCFGLKLDRIGSMSGLGC-OH; disulfide 22-38 (inferred); N-terminus and C-terminus assumed), for the setting “NIH3T3, […]”, the cGMP response relative to 1 uM CNP22 (%) at 0.01 µM stood at 14 ± 5% and the cGMP response relative to 1 uM CNP22 (%) at 1 µM is 77 ± 12%.

Values taken from patent US8377884B2, “Variants of C-type natriuretic peptides” (Biomarin Pharmaceutical Inc., priority 2007, dated 2013).
